{"source": "patent US11219625B2", "about": "“Inhibitors of N-linked glycosylation and methods using same” (YALE UNIVERSITY, priority 2015, dated 2022)", "key": {"PC9 cells": {"test_system": "PC9 cells", "experiment": "Assessment of senescence, autofluorescence by flow cytometry, PC9", "assay_type": "cell-based", "conditions": "PC9, NGI-1 treatment for 5 days", "description": "(§1) FIGS. 5A-5G illustrate NGI-1 induces G1 arrest and senescence in EGFR addicted tumor cells. FIG. 5A illustrates cell cycle distribution of PC9 cells after 24 h NGI-1 treatment for 24 h determined by flow cytometry. […] FIG. 5B illustrates cell cycle distribution of A549 cells after 24 h NGI-1 treatment for 24 h determined by flow cytometry. FIG. 5C illustrates western blot time course of cyclin D1 expression in PC9 and A549 cells after NGI-1 treatment. FIG. 5D illustrates quantitative real-time PCR analysis of PC9 and A549 cells. A time course of cyclin D1 expression levels relative to GAPDH is represented. […] FIG. 5F illustrates senescence of PC9 cells explored by: cell autofluorescence, measured by flow cytometry using a detector for PE/YFP; lipofuscin accumulation, detected by confocal laser scanning microscopy using an excitation laser of 405 nm with acquired signals from spectrums of yellow 575-620 nm; and morphology changes, enlarged vs. flattened. […] Significance was calculated using a T test (*p<0.05. **p<0.01). FIG. 5G illustrates senescence of A549 cells explored by: cell autofluorescence, measured by flow cytometry using a detector for PE/YFP; lipofuscin accumulation, detected by confocal laser scanning microscopy using an excitation laser of 405 nm with acquired signals from spectrums of yellow 575-620 nm; and morphology changes, enlarged vs. flattened. […]"}, "cyclin D1": {"test_system": "cyclin D1", "experiment": "Cyclin D1 expression (qRT-PCR, western blot), A549", "assay_type": "cell-based, human", "description": "as §1"}}, "data": [{"molecule": "Cc1cnc(NC(=O)c2cc(S(=O)(=O)N(C)C)ccc2N2CCCC2)s1", "note": "[NGI-1, 5-(N,N-Dimethylsulfamoyl)-N-(5-methylthiazol-2-yl)-2-(pyrrolidin-1-yl)benzamide]", "values": [{"measurement": "increase of autofluorescence by flow cytometry", "setting": "PC9 cells", "result": "< 60", "unit": "%"}, {"measurement": "cyclin D1 mRNA and protein levels", "setting": "cyclin D1", "result": "not significantly affected"}]}]}
